Results on two sequences are retold here after patent US20110294728A1, “Antiviral Polypeptides” (priority 2008, published 2011).

Several values for one entry are separate records, joined by “and”; a condition that tells them apart may be missing. Identical values can stand only once. Where no end group is shown, it is not given here. Some results are limits rather than exact numbers.

A word on the half-life: it is how long it takes for the measured level to halve. What is called Ki is the dissociation constant of the complex between target and ligand, obtained from inhibition or displacement. A lower Ki goes with a stronger hold on the target. In general, IC50 refers to the concentration at which inhibition is half-maximal. In general, EC50 refers to the midpoint of the concentration-response curve.

The nature of one data set: in vivo. Particulars: for half-life: female, BALB/c, mouse, in vivo, iv, 10 μg; for tissues with peptide accumulation: formulated with CADY-2c/CADY-1S1, after 24 hr; for time of optimal distribution: formulated with CADY-2c/CADY-1S1, intravenous; for distribution of naked peptide: intravenous, after 15 min. The protocol:
In order to evaluate the potency of the peptides p27 (SEQ ID NO: 25) and p16 (SEQ ID NO: 19) in vivo, it was analyzed their ability to be systemically administrated by intravenous injection in mice (BALB/c; 6 to 8 week-old female mice). Peptides were either radio-labeled at the N-terminal amino acid or fluorescently labeled with Alexa® Fluo700 probe. […] Particles were injected intravenously (100 μl) and kinetic of peptide distribution were followed by fluorescence live imaging. 24 hr after injection, the level of peptides in the different tissues were quantified by fluorescence and radioactivity.

The target of the next data set is T1, HIV-1 RT (Human immunodeficiency virus type 1 group M subtype B, UniProt P03366).
T1 construct: The heterodimeric p66/p51 RT was eluted with an imidazole gradient; p66 and p51 derived from p66 by proteolytic cleavage of the C-terminal RNAse H domain; made in house; host or cells: E. coli (M15 for the His-tagged subunits)
Nature of the data set: biochemical. The essentials:
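HIV-1 RT (20 nM, as added) was preincubated 23 h with increasing peptide concentrations, then reaction buffer was added (Tris pH 8.0, KCl, MgCl2, DTT, 0.15 µM poly(rA)-(dT)15, 15 µM dTTP plus 3H-dTTP, as added) for 30 min at 37 °C. Incorporated 3H was measured after TCA precipitation and filtration by scintillation counting; mean of three experiments.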

The next data set concerns HIV-1 strain 1650. Particulars: peptide with Pep-1 or Pep-3 at ratio 20/1, combinations with Pep-3.
A further data set concerns the target IN/LEDGF complex (Human immunodeficiency virus type 1 group M subtype B, UniProt P04585). Nature of the data set: Dissociation of IN/LEDGF complex (AlphaScreen, immunoprecipitation). The format is biochemical. The protocol:
Dissociation of IN/LEDGF complex was measured by fluorescence resonance energy transfer (AlphaScreen® technology) and immunoprecipitation experiments: • Amplified Luminescent Proximity Homogeneous Assay (ALPHA): when the proteins (IN and LEDGF), linked to acceptor and donor beads, interact together (i.e., are into close proximity), a photosignal (a high amplified signal with output in the 520-560 nm range) is detected; when the proteins are not in close proximity, the reactive oxygen decays and there is no detectable signal generated; • immunoprecipitation (IP) was performed using polyclonal anti LEDGF antibodies (purchased from Santa Cruz Biotechnology, USA) and polyclonal HA antibodies (purchased from Eurogentec, Belgium). Cell line expression HA-tagged integrase was using for the experiment in the presence of increasing concentrations of peptide inhibitors.
(In general: Bead proximity is the source of the signal in Alpha formats.)

In the next data set the test system is HIV-1 74V. The data set is classed as cell-based. Conditions: resistant to ddI and ddC.
The test system of a further data set is HIV-1 215Y. The data set is classed as cell-based. Conditions: AZT-resistant.

For GTKWLTEVWPL [Peptide P16], in “in vivo”, the half-life is under 1 h; the “tissues with peptide accumulation” value is “liver, brain, stomach, kidney, lung”; the “time of optimal distribution” value is 5 h; the “distribution of naked peptide” value is “accumulated mainly in the bladder”. This sequence also came in with a Ki on HIV-1 RT of 14400 nM. Also, the “reduction of efficiency (higher Ki) relative to PAW” value at HIV-1 RT (relative to PAW) worked out at 20 fold. Besides, the concentration for half-maximal inhibition (IC50) in the data set with HIV-1 strain 1650 was determined as 7.5 nM. This sequence also returned an EC50 on IN/LEDGF complex of 800 nM.
Regarding GTKWLTEWIPLTAE [Peptide P27], in the data set “in vivo”, the half-life was under 1 h; the “tissues with peptide accumulation” value is “liver, brain, stomach, kidney, lung”; the “time of optimal distribution” value is 5 h; the “distribution of naked peptide” value is given as “accumulated mainly in the bladder”. Further, the IC50 in the data set with HIV-1 74V is 3.8 nM and 4.9 nM. Moreover, the affinity on HIV-1 RT corresponds to a Ki of 50 ± 0.01 nM. Also, at HIV-1 RT (relative to PAW), the “increase of efficiency relative to PAW” value came out at 14 fold. For the same sequence, in the data set on HIV-1 strain 1650, the 50% inhibitory concentration (IC50) was found to be 0.8 nM. In addition, the IC50 in the data set on HIV-1 215Y was 2.7 nM and 3.9 nM.
